Test results from patent publication US5484940A, “Substituted 3-indolyl-5-pyrazolone compounds” (priority 1994, dated 1996).

Legend:
[1] = system: 293 751 SWE cells; test: Cytotoxicity (MTT) in 293 751 SWE cells; assay type: cell-based, human; details: concentration not given
Procedure: (§1) This screening assay employed cells (K293=human kidney cell line) which were stably transfected with the gene for amyloid precursor protein 751 (APP751) containing the double mutation Lys651 Met652 to Asn651 Leu652 (APP751 numbering) in the manner described in International Patent Application Publication No. 94/10569^1 and Citron et al.^16. This mutation is commonly called the Swedish mutation and the cells, designated as "293 751 SWE", were plated in Coming 96-well plates at 1.5-2.5×10^4 cells per well in Dulbecco's minimal essential media plus 10% fetal bovine serum. Cell number is important in order to achieve β-amyloid ELISA results within the linear range of the assay (~0.2 to 2.5 ng per mL).
Cytotoxic effects of the compounds were measured by a modification of the method of Hansen, et al.^17. To the cells remaining in the tissue culture plate was added 25 μL of a 3,(4,5-dimethylthiazol-2-yl)2,5-diphenyltetrazolium bromide (MTT) stock solution (5 mg/mL) to a final concentration of 1 mg/mL. Cells were incubated at 37° C. for one hour, and cellular activity was stopped by the addition of an equal volume of MTT lysis buffer (20% w/v sodium dodecylsulfate in 50% dimethylformamide, pH 4.7). Complete extraction was achieved by overnight shaking at room temperature. The difference in the OD562nm and the OD650nm was measured in a Molecular Device's UVmax microplate reader as an indicator of the cellular viability.

[2] = system: β-amyloid peptide production; test: Cellular screen for inhibitors of β-amyloid production (ELISA, 293 751 SWE cells); assay type: cell-based, human; details: 2 h pretreatment + 2 h, normalized for cytotoxicity (MTT), concentration not given
Procedure: as §1
Following overnight incubation at 37° C. in an incubator equilibrated with 10% carbon dioxide, media were removed and replaced with 200 μL of a substituted 3-indolyl-5-pyrazolone (drug) containing media per well for a two hour pretreatment period and cells were incubated as above.
At the end of the pretreatment period, the media were again removed and replaced with fresh drag containing media as above and cells were incubated for an additional two hours. After treatment, plates were centrifuged in a Beckman GPR at 1200 rpm for five minutes at room temperature to pellet cellular debris from the conditioned media. From each well, 100 μL of conditioned media or appropriate dilutions thereof were transferred into an ELISA plate precoated with antibody 266 against amino acids 13-28 of β-amyloid peptide as described in International Patent Application Publication No. 94/10569^1 and stored at 4° C. overnight. An ELISA assay employing labelled antibody 6C6 against amino acids 1-16 of β-amyloid peptide was run the next day to measure the amount of β-amyloid peptide produced.
The results of the β-amyloid peptide ELISA were fit to a standard curve and expressed as ng/mL β-amyloid peptide. […] All results are the mean and standard deviation of at least six replicate assays.

Question: COc1ccc2c(c1)c(CC1=NN(C3CCCC3)C(=O)C1)c(C)n2C(=O)c1ccc(Cl)cc1 [Example 11, 3-[1-(4-chlorobenzoyl)-5-methoxy-2-methyl-3-indolylmethyl]-1-cyclopentyl-5-pyrazolone] was tested. Which “cytotoxic effect on the 293 751 SWE cells” value (“cytotoxic effect” for short) [1] did it give?
Answer: Its value is “did not have a significant cytotoxic effect”.

Question: What about the “reduction of β-amyloid peptide production as compared to control” value (“reduction” for short) [2] of the same compound?
Answer: The value was “at least 20%”.

Question: How did the “cytotoxic effect” value [1] turn out when COc1ccc2c(c1)c(CC1=NN(C3CCCCCC3)C(=O)C1)c(C)n2C(=O)c1ccc(Cl)cc1 [Example 12, 3-[1-(4-chlorobenzoyl)-5-methoxy-2-methyl-3-indolylmethyl]-1-cycloheptyl-5-pyrazolone] was run?
Answer: The value was “did not have a significant cytotoxic effect”.

Question: What about the “reduction” value [2] of the same compound?
Answer: The value was “at least 20%”.

Question: With COc1ccc2c(c1)c(CC1=NN(Cc3ccccc3)C(=O)C1)c(C)n2C(=O)c1ccc(Cl)cc1 [Example 13, 3-[1-(4-chlorobenzoyl)-5-methoxy-2-methyl-3-indolylmethyl]-1-benzyl-5-pyrazolone] as the compound, how does the “cytotoxic effect” value [1] read?
Answer: Its value is “did not have a significant cytotoxic effect”.

Question: What about the “reduction” value [2] of the same compound?
Answer: Its value is “at least 20%”.

Question: Which results are given for CCCC(CCC)N1N=C(Cc2c(C)n(C(=O)c3ccc(Cl)cc3)c3ccc(OC)cc23)CC1=O [Example 16, 3-[1-(4-chlorobenzoyl)-5-methoxy-2-methyl-3-indolylmethyl]-1-(4-heptyl)-5-pyrazolone]?
Answer: cytotoxic effect on the 293 751 SWE cells [1]: did not have a significant cytotoxic effect; reduction of β-amyloid peptide production as compared to control [2]: at least 20%

Question: COc1ccc2[nH]c(C)c(CC3=NN(C4CCCCC4)C(=O)C3)c2c1 [Example 17, 3-(5-methoxy-2-methyl-3-indolylmethyl)-1-cyclohexyl-5-pyrazolone] was tested. Which “cytotoxic effect” value [1] did it give?
Answer: The value was “did not have a significant cytotoxic effect”.

Question: What about the “reduction” value [2] of the same compound?
Answer: The value was “at least 20%”.

Question: Which “cytotoxic effect” value [1] does the source give for COc1ccc2c(c1)c(CC1=NN(C3CCCCC3)C(=O)C1)c(C)n2Cc1ccccc1 [Example 20, 3-(1-benzyl-5-methoxy-2-methyl-3-indolylmethyl)-1-cyclohexyl-5-pyrazolone] here?
Answer: The value was “did not have a significant cytotoxic effect”.

Question: What about the “reduction” value [2] of the same compound?
Answer: Its value is “at least 20%”.

Question: How did the “cytotoxic effect” value [1] turn out when COc1ccc2c(c1)c(CCC1=NN(C3CCCCC3)C(=O)C1)c(C)n2C(=O)c1ccc(Cl)cc1 [Example 21, 3-[1-(4-chlorobenzoyl)-5-methoxy-2-methyl-3-indolylethyl]-1-cyclohexyl-5-pyrazolone] was run?
Answer: The value was “did not have a significant cytotoxic effect”.

Question: What about the “reduction” value [2] of the same compound?
Answer: Its value is “at least 20%”.

Question: What does the source list for Cc1c(CC2=NN(C3CCCCC3)C(=O)C2)c2ccccc2n1C(=O)c1ccc(Cl)cc1 [Example 22, 3-[1-(4-chlorobenzoyl)-2-methyl-3-indolylmethyl]-1-cyclohexyl-5-pyrazolone]?
Answer: cytotoxic effect on the 293 751 SWE cells [1]: did not have a significant cytotoxic effect; reduction of β-amyloid peptide production as compared to control [2]: at least 20%

Question: For COc1ccc2c(c1)c(CC1=NN(c3cccc(Br)c3)C(=O)C1)c(C)n2C(=O)c1ccc(Cl)cc1 [Example 28, 3-[1-(4-chlorobenzoyl)-5-methoxy-2-methyl-3-indolylmethyl]-1-(3-bromophenyl)-5-pyrazolone], which “reduction” value [2] is on record?
Answer: Its value is < 20%.

Question: With COc1ccc2c(c1)c(CC1=NN(c3cc(C)cc(C)c3)C(=O)C1)c(C)n2C(=O)c1ccc(Cl)cc1 [Example 29, 3-[1-(4-chlorobenzoyl)-5-methoxy-2-methyl-3-indolylmethyl]-1-(3,5-dimethylphenyl)-5-pyrazolone] as the compound, how does the “cytotoxic effect” value [1] read?
Answer: Its value is “did not have a significant cytotoxic effect”.

Question: What about the “reduction” value [2] of the same compound?
Answer: The value was “at least 20%”.

Question: For COc1ccc2c(c1)c(CC1=NN(c3ccc(C(F)(F)F)cc3)C(=O)C1)c(C)n2C(=O)c1ccc(Cl)cc1 [Example 37, 3-[1-(4-chlorobenzoyl)-5-methoxy-2-methyl-3-indolylmethyl]-1-(4-trifluoromethylphenyl)-5-pyrazolone], which “cytotoxic effect” value [1] is on record?
Answer: The value was “did not have a significant cytotoxic effect”.

Question: What about the “reduction” value [2] of the same compound?
Answer: The value was “at least 20%”.

Question: COc1ccc2c(c1)c(CC1=NN(C3CCCCC3)C(=O)C1)c(C)n2C(=O)c1ccc(Cl)c(Cl)c1 [Example 39, 3-[1-(3,4-dichlorobenzoyl)-5-methoxy-2-methyl-3-indolylmethyl]-1-cyclohexyl-5-pyrazolone] was tested. Which “cytotoxic effect” value [1] did it give?
Answer: Its value is “did not have a significant cytotoxic effect”.

Question: What about the “reduction” value [2] of the same compound?
Answer: Its value is “at least 20%”.

Question: With COc1ccc2c(c1)c(CC1=NN(c3cccc(NC(C)=O)c3)C(=O)C1)c(C)n2C(=O)c1ccc(Cl)cc1 [Example 41, 3-[1-(4-chlorobenzoyl)-5-methoxy-2-methyl-3-indolylmethyl]-1-(3-acetamidophenyl)-5-pyrazolone] as the compound, how does the “reduction” value [2] read?
Answer: The value was < 20%.

Question: For COc1ccc2c(c1)c(CC1=NN(C3CCCCC3)C(=O)C1C)c(C)n2C(=O)c1ccc(Cl)cc1 (stereo not shown) [Example 43, 3-[1-(4-chlorobenzoyl)-5-methoxy-2-methyl-3-indolylmethyl]-1-cyclohexyl-4-methyl-5-pyrazolone], which “cytotoxic effect” value [1] is on record?
Answer: The value was “did not have a significant cytotoxic effect”.

Question: What about the “reduction” value [2] of the same compound?
Answer: Its value is “at least 20%”.

Question: How did the “cytotoxic effect” value [1] turn out when COc1ccc2c(c1)c(CC1=NN(C3CCCCC3)C(=O)C1(C)C)c(C)n2C(=O)c1ccc(Cl)cc1 [Example 44, 3-[1-(4-chlorobenzoyl)-5-methoxy-2-methyl-3-indolylmethyl]-1-cyclohexyl-4,4-dimethyl-5-pyrazolone] was run?
Answer: Its value is “did not have a significant cytotoxic effect”.

Question: And the “reduction” value [2]?
Answer: The value was “at least 20%”.

Question: For COc1ccc2c(c1)c(CC1=NN(C)C(=O)C1)c(C)n2C(=O)c1ccc(Cl)cc1 [Example 46, 3-[1-(4-chlorobenzoyl)-5-methoxy-2-methyl-3-indolylmethyl]-1-methyl-5-pyrazolone], which “cytotoxic effect” value [1] is on record?
Answer: Its value is “did not have a significant cytotoxic effect”.

Question: And the “reduction” value [2]?
Answer: The value was “at least 20%”.

Question: O=C1CC(CCCc2c[nH]c3ccccc23)=NN1C1CCCCC1 [Example 49, 3-[3-indolyl-n-propyl]-1-cyclohexyl-5-pyrazolone] was tested. Which “cytotoxic effect” value [1] did it give?
Answer: The value was “did not have a significant cytotoxic effect”.

Question: What about the “reduction” value [2] of the same compound?
Answer: The value was “at least 20%”.

Question: For COc1ccc2c(c1)c(CC1=NN(c3cccc(C(F)(F)F)c3)C(=O)C1)c(C)n2C(=O)c1ccc2ccccc2c1 [Example 51], which “cytotoxic effect” value [1] is on record?
Answer: The value was “did not have a significant cytotoxic effect”.

Question: What about the “reduction” value [2] of the same compound?
Answer: The value was “at least 20%”.

Question: For COc1ccc2c(c1)c(CC1=NN(c3cccc(C(F)(F)F)c3)C(=O)C1)c(C)n2C(=O)c1ccccc1 [Example 53, 3-[1-benzoyl-5-methoxy-2-methyl-3-indolylmethyl]-1-(3-trifluoromethylphenyl)-5-pyrazolone], which “cytotoxic effect” value [1] is on record?
Answer: The value was “did not have a significant cytotoxic effect”.

Question: What about the “reduction” value [2] of the same compound?
Answer: Its value is “at least 20%”.

Question: COc1ccc2c(c1)c(CC1=NN(c3ccc(C(F)(F)F)cc3)C(=O)C1)c(C)n2C(=O)c1ccc(C#N)cc1 [Example 55, 3-[1-(4-cyanobenzoyl)-5-methoxy-2-methyl-3-indolylmethyl]-1-(4-trifluoromethylphenyl)-5-pyrazolone] was tested. Which “cytotoxic effect” value [1] did it give?
Answer: Its value is “did not have a significant cytotoxic effect”.

Question: And the “reduction” value [2]?
Answer: Its value is “at least 20%”.

Question: Which results are given for COc1ccc(C(=O)n2c(C)c(CC3=NN(C4CCCCC4)C(=O)C3)c3cc(OC)ccc32)cc1 [Example 57, 3-[1-(4-methoxybenzoyl)-5-methoxy-2-methyl-3-indolylmethyl]-1-cyclohexyl-5-pyrazolone]?
Answer: cytotoxic effect on the 293 751 SWE cells [1]: did not have a significant cytotoxic effect; reduction of β-amyloid peptide production as compared to control [2]: at least 20%
